# From US6492378B1, “Substituted isoquinoline derivatives and their use as anticonvulsivants” (SmithKline Beecham p.l.c., priority 1998, dated 2002)
# System: maximal electroshock seizure (MEST) threshold in rodents
# Experiment: MEST test (maximal electroshock seizure threshold)
# Assay type: in vivo
# Details: 2 mg/kg p.o. at 2 h post-dose
# Procedure: 2. MEST Test The maximal electroshock seizure (MEST) threshold test in rodents is particularly sensitive for detecting potential anticonvulsant properties^1. In this model, anticonvulsant agents elevate the threshold to electrically-induced seizures whilst proconvulsants lower the seizure threshold. Method for Mouse Model Mice (naive male, Charles River, U.K. CD-1 strain, 25-30 g) are randomly assigned to groups of 10-20 and dosed orally or intraperitoneally at a dose volume of 10 ml/kg with various doses of compound (0.3-300 mg/kg) or vehicle. Mice are then subjected at 30 or 60 min post dose to a single electroshock (0.1 sec, 50 Hz, sine wave form) administered via corneal electrodes. The mean current and standard error required to induce a tonic seizure in 50% (CC50) of the mice in a particular treatment group is determined by the ‘up and down’ method of Dixon and Mood (1948)^2. Statistical comparisons between vehicle- and drug-treated groups are made using the method of Litchfield and Wilcoxon (1949)^3. In control animals the CC50 is usually 14-18 mA. […] If a tonic convulsion does occur, then the current is decreased, and so on until all the animals in the group have been tested. Studies are carried out using a Hugo Sachs Electronik Constant Current Shock Generator with totally variable control of shock level from 0 to 300 mA and steps of 2 mA are usually used. Method for Rat Model The threshold for maximal (tonic hindlimb extension) electroshock seizures in male rats (Sprague Dawley, 80-150 g, 6 weeks old) was determined by a Hugo Sachs Electronik stimulator which delivered a constant current (0.3 sec duration; from 1-300 mA in steps of 5-20 mA). The procedure is similar to that outlined above for mouse and full details are as published by Upton et al,.^4 The percentage increase or decrease in CC50 for each group compared to the control is calculated. Drugs are suspended in 1% methyl cellulose.
row,SMILES,% increases in seizure threshold
1,"COc1ccc(C(=O)Nc2ccc3c(c2)CN(C)CC3(C)C)cc1Br [Example E15, N-(2,4,4-Trimethyl-1,2,3,4-tetrahydroisoquinolin-7-yl)-3-bromo-4-methoxybenzamide]",263%
2,"COc1ccc(C(=O)Nc2ccc3c(c2)CN(C)CC3(C)C)cc1I [Example E17, N-(2,4,4-Trimethyl-1,2,3,4-tetrahydroisoquinolin-7-yl)-3-iodo-4-methoxybenzamide]",314%
3,"COc1cc(OC(C)C)c(Cl)cc1C(=O)Nc1cccc2c1C(C)(C)CN(C)C2 [Example E29, N-(2,4,4-Trimethyl-1,2,3,4-tetrahydroisoquinolin-5-yl)-5-chloro-2-methoxy-4-iso-propyloxybenzamide]",310%
4,"COc1cc(C(C)C)c(C(F)(F)F)cc1C(=O)Nc1cccc2c1C(C)(C)CN(C)C2 [Example E34, N-(2,4,4-Trimethyl-1,2,3,4-tetrahydroisoquinolin-5-yl)-2-methoxy-4-iso-propyl-5-trifluoromethylbenzamide]",280%
5,"CCc1c(NC(=O)c2ccc(OC(C)C)c(C(C)=O)c2)ccc2c1CN(C)CC2(C)C [Example E48, N-(8-Ethyl-2,4,4-trimethyl-1,2,3,4-tetrahydroisoquinolin-7-yl)-3-acetyl-4-iso-propyloxybenzamide]",240%
6,"COc1ccc(C(=O)Nc2ccc3c(c2)CN(C)C(C)(C)C3)cc1C(F)(F)F [Example E69, N-(2,3,3-Trimethyl-1,2,3,4-tetrahydroisoquinolin-7-yl)4-methoxy-3-trifluoromethylbenzamide]",340%
